# Results as given in ChEMBL document CHEMBL1201862, “PubChem BioAssay data set” (2004).
# Activity calls are given as the source filed them.
# Legend:
# [1] = target: T1, Apoptotic protease-activating factor 1 (Homo sapiens, UniProt O14727); experiment: SAR analysis of small molecule Activators of Apaf-1 in a Fluorescent assay.; format: functional; settings: read-out: EC50_Mean;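 also: caspase-3 cleavage of fluorogenic Rh110 DEVD substrate downstream of apoptosome activation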
# T1 sequence (O14727 whole entry): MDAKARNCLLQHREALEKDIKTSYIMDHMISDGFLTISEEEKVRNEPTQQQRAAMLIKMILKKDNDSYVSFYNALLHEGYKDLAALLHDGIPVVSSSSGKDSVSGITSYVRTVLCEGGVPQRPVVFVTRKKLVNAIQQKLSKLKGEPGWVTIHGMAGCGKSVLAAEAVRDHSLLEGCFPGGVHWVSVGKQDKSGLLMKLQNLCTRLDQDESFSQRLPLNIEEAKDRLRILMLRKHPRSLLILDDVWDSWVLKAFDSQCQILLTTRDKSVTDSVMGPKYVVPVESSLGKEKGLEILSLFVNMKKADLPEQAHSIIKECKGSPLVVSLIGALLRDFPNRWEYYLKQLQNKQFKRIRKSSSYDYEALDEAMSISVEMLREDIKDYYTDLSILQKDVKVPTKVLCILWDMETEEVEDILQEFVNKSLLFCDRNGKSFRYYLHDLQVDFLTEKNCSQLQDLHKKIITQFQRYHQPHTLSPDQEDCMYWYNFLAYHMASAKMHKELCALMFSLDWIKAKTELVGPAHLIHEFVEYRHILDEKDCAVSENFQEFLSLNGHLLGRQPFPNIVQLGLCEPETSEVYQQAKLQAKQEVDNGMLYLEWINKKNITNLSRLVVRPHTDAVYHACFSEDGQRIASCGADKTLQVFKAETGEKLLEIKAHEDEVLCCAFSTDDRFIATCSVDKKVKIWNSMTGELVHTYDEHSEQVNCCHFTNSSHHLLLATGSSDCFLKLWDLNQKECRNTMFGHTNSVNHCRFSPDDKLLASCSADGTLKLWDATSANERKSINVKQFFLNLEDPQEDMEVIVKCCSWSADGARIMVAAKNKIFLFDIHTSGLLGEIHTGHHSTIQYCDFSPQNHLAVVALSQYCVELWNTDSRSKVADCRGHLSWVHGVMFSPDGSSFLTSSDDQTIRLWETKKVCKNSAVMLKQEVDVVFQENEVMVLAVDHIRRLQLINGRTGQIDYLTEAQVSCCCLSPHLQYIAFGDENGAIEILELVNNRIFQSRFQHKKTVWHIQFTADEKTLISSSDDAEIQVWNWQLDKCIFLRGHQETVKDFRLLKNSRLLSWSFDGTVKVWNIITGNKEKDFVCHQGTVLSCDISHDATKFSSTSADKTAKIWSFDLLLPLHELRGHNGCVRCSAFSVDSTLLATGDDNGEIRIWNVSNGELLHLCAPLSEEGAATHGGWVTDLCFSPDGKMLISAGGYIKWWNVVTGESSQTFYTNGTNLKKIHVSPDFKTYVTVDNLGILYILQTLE
# [2] = target: Phospholipase A2 (Homo sapiens, UniProt P04054); format: functional;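 also: confirmatory dose-response counterscreen on phospholipase A2, testing hits that came from an ultra-high-throughput screen for ATG4B inhibitors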
# [3] = target: T2, Cysteine protease ATG4B (Homo sapiens, UniProt Q9Y4P1); format: functional;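 also: Fluorescence-based dose-response confirmation assay measuring inhibition of ATG4B activity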
# T2 sequence (Q9Y4P1 whole entry): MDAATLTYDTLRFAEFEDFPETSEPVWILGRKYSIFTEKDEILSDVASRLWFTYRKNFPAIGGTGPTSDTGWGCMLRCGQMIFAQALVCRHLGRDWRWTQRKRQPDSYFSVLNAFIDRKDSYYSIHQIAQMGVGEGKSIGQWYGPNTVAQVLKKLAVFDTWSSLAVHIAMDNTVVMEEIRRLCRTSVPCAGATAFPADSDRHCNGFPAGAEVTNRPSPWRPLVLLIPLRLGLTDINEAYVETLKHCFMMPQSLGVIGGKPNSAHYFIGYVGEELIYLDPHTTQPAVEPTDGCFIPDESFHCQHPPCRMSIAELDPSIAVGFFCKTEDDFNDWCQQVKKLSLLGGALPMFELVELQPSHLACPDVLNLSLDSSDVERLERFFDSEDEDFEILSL
# [4] = HEp-2 cell cytotoxicity, dose response, cytotoxicity control for RSV inhibitor project, HTS (AID 2410); format: functional; settings: human respiratory syncytial virus
# [5] = target: Genome polyprotein (dengue virus type 2, UniProt P29990); experiment: Dengue-2 NS5 methyltransferase inhibitors, primary screen, biochemical, confirmation dose response (AID 588689); format: functional
# [6] = system: Streptococcus; experiment: Group A Streptococcus viability loss, dose response, counter-screen for streptokinase expression inhibitor project, luminescence, BacTiterGlo (AID 1915); format: functional, organism-based;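 also: potency for reduction of bacterial viability or growth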
# [7] = target: DNA (cytosine-5)-methyltransferase 1 (Homo sapiens, UniProt P26358); experiment: DNMT1 methyltransferase inhibitors, confirmation, biochemical, fluorescent molecular beacon (AID 602386); format: functional
# [8] = target: T3, Streptokinase A (Streptococcus pyogenes serotype M1, UniProt P10520); experiment: S. pyogenes streptokinase expression inhibitors, potency, dose response, plasminogen activation absorbance, OD405 (AID 1914); format: functional, Streptococcus pyogenes M1 GAS;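 also: secreted streptokinase activity via plasminogen activation per viability signal from cell pellet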
# T3 sequence (P10520 whole entry): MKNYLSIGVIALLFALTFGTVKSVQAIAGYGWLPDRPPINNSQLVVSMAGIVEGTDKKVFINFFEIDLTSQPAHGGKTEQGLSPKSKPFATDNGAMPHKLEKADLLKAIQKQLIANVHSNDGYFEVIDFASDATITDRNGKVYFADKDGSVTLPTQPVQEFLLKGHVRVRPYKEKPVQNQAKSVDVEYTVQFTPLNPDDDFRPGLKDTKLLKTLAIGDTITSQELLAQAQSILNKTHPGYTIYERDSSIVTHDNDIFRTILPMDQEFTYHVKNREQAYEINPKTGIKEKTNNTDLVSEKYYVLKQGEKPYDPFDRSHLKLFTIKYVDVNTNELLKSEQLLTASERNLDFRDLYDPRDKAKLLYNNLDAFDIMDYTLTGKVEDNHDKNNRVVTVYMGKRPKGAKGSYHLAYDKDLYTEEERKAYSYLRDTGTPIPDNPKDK
# [9] = system: Streptococcus sp. 'group A'; experiment: growth inhibition of control SK(-) GAS strain, dose response, counter-screen for streptokinase expression inhibitor project, luminescence, kanamycin, BacTiterGlo, confirmation (AID 1900); format: functional, organism-based
# [10] = target: FAD-linked sulfhydryl oxidase ALR (Homo sapiens, UniProt P55789); experiment: inhibitors of human ALR sulfhydryl oxidase, dose response, biochemical, H2O2 detection, luminescence, cherry-pick (AID 493248)
# [11] = target: Adenosylmethionine-8-amino-7-oxononanoate aminotransferase (Mycobacterium tuberculosis, UniProt P9WQ81); experiment: Mycobacterium tuberculosis BioA enzyme inhibitor Measured in Biochemical System Using Plate Reader - 2163-02_Inhibitor_Dose_CherryPick_Activity.; format: functional, Mycobacterium tuberculosis UT205
# [12] = target: T4, Corticotropin-releasing factor receptor 2/Corticotropin-releasing factor-binding protein (Homo sapiens, UniProt P24387+Q13324); experiment: activators of CRF receptor 2 with binding protein – uHTS hits, confirmation (AID 602473); format: functional; settings: read-out: EC50_Mean
# T4 sequence (Q13324 whole entry): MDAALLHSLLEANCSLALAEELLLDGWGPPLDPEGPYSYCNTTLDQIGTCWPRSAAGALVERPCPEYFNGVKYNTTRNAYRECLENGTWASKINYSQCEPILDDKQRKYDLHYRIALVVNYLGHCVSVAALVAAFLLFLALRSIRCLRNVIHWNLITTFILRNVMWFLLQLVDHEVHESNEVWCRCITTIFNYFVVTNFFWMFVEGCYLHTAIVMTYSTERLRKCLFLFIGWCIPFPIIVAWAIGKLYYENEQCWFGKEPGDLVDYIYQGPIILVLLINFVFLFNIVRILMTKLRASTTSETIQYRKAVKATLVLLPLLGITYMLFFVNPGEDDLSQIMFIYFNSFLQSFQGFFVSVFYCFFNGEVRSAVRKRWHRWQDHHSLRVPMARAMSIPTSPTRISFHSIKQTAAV
# T4 sequence (P24387 whole entry): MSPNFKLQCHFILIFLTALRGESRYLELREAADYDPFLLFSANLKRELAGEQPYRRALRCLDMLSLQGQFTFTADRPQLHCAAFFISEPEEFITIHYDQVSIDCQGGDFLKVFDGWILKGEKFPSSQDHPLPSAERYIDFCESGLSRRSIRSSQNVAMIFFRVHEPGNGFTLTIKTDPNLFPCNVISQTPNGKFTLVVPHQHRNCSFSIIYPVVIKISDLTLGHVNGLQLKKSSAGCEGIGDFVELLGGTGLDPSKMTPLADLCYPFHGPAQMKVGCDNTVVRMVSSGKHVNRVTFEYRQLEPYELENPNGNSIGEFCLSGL
# [13] = target: T4, Corticotropin-releasing factor receptor 2/Corticotropin-releasing factor-binding protein; experiment: Dose Response confirmation of uHTS hits for small molecule antagonists of the CRF-binding protein and CRF-R2 receptor complex.; format: functional; settings: read-out: IC50_Mean
# [14] = growth suppression of PTEN-null colon cells, dose response, cell-based, HCT116 PTEN knockout (AID 1047); format: functional;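 also: HCT116 colon tumor cells with PTEN knocked out; cells exposed to compound for 60 hours before readout; potency for loss of cell viability measured by luminescence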
# [15] = growth suppression of beta-catenin-knockout colon cells, dose response, cell-based, HCT116, human colon tumor (AID 1045); format: functional;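 also: HCT116 colon tumor cells with beta catenin knocked out; cells exposed to compound for 60 hours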
# [16] = target: T5, Orexin receptor type 2 (Homo sapiens, UniProt O43614); experiment: Counterscreen assay for antagonists of the orexin 1 receptor (OX1R; HCRTR1): Homogeneous Time Resolved Fluorescence (HTRF)-based cell-based dose response assay for antagonists of the orexin 2 receptor (OX2R; HCRTR2), run by assay provider.; format: functional
# T5 sequence (O43614 whole entry): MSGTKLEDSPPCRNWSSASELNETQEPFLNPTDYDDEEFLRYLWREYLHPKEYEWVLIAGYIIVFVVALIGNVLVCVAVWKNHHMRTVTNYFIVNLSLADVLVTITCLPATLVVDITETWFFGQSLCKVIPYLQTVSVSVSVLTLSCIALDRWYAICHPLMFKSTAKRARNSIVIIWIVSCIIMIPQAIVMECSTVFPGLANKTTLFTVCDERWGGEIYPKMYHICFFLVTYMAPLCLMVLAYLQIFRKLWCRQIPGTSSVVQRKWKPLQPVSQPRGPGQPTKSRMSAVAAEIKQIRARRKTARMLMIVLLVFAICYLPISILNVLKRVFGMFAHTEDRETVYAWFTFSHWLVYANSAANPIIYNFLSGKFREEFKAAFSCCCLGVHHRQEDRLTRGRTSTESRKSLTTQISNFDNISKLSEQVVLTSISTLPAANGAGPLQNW
# [17] = target: T6, Orexin/Hypocretin receptor type 1 (Homo sapiens, UniProt O43613); experiment: Homogeneous Time Resolved Fluorescence (HTRF)-based cell-based high throughput dose response assay for antagonists of the orexin 1 receptor (OX1R; HCRTR1). [Related pubchem assays (depositor defined):AID434989, AID435008, AID463079, AID485270, AID492963, AID492964, AID492965, AID493232, AID504717, AID504718]; format: functional
# T6 sequence (O43613 whole entry): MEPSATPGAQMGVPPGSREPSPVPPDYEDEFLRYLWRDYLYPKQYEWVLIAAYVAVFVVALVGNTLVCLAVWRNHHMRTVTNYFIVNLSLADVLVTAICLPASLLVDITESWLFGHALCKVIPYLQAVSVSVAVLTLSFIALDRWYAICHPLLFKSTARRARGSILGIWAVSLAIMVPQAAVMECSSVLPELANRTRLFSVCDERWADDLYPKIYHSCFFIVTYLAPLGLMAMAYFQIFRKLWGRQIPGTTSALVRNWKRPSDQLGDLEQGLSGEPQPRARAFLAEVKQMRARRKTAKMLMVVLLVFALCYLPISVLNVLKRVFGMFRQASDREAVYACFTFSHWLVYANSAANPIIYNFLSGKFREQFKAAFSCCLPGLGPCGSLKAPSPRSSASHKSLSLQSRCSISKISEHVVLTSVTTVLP
# [18] = target: T5, Orexin receptor type 2; experiment: Counterscreen assay for antagonists of the orexin 1 receptor (OX1R; HCRTR1): Fluorescence-based cell-based dose response assay for antagonists of the orexin 2 receptor (OX2R; HCRTR2), run by assay provider.; format: functional
# [19] = target: Induced myeloid leukemia cell differentiation protein Mcl-1 (Homo sapiens, UniProt Q07820); format: functional
# [20] = system: CHO-K1; experiment: (§1) Counterscreen for antagonists of the orexin 1 receptor (OX1R; HCRTR1): Homogeneous time resolved fluorescence (HTRF)-based cell-based dose response assay to identify antagonists of the parental CHO-K1 cell line. [Related pubchem assays (depositor defined):AID434989, AID435008, AID463079, AID485270, AID492963, AID492964, AID492965, AID493232, AID504699, AID504701]; format: functional; settings: Cricetulus griseus
# [21] = target: T6, Orexin/Hypocretin receptor type 1; experiment: Fluorescence-based cell-based high throughput dose response assay for antagonists of the orexin 1 receptor (OX1R; HCRTR1). [Related pubchem assays (depositor defined):AID434989, AID435008, AID463079, AID485270, AID492963, AID492964, AID492965, AID493232, AID504717, AID504718]; format: functional
# [22] = as §1, with “Fluorescence-based” for “Homogeneous time resolved fluorescence (HTRF)-based”, “cell-based high throughput” for “cell-based”, “CHO” for “CHO-K1”; format: functional
# Chain of Adenosylmethionine-8-amino-7-oxononanoate aminotransferase (P9WQ81 whole entry): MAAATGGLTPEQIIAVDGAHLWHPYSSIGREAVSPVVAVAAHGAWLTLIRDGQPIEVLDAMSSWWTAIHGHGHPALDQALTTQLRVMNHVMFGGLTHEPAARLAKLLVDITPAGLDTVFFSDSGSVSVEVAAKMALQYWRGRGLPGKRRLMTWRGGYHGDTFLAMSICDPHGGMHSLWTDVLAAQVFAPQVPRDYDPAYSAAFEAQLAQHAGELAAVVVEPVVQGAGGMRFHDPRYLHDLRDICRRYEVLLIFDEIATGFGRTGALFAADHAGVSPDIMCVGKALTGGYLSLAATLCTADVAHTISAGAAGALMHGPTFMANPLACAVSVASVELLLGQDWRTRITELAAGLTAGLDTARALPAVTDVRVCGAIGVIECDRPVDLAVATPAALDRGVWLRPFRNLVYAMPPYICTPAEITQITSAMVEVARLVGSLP
# Chain of FAD-linked sulfhydryl oxidase ALR (P55789 whole entry): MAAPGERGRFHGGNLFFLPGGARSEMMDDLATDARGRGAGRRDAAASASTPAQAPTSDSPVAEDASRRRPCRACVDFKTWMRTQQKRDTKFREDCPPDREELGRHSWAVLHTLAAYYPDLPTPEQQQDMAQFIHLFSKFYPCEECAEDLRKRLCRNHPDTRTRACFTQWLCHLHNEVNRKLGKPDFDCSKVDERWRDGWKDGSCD
# Chain of Phospholipase A2 (P04054 whole entry): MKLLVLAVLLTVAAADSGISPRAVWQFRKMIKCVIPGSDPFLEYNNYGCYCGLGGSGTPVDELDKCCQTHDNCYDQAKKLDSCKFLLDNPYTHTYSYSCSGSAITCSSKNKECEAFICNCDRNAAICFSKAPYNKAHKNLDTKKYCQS
# Chain of Induced myeloid leukemia cell differentiation protein Mcl-1 (Q07820 whole entry): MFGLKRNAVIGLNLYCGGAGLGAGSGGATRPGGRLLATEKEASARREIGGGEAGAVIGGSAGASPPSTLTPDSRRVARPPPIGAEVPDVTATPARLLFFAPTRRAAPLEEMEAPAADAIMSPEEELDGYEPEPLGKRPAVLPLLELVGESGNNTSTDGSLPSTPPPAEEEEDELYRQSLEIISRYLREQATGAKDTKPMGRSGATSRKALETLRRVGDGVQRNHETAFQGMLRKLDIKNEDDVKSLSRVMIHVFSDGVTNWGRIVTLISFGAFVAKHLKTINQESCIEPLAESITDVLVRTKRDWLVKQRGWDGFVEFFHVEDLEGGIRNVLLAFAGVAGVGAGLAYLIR
# Chain of Genome polyprotein (P29990 2492-3391 limits assumed): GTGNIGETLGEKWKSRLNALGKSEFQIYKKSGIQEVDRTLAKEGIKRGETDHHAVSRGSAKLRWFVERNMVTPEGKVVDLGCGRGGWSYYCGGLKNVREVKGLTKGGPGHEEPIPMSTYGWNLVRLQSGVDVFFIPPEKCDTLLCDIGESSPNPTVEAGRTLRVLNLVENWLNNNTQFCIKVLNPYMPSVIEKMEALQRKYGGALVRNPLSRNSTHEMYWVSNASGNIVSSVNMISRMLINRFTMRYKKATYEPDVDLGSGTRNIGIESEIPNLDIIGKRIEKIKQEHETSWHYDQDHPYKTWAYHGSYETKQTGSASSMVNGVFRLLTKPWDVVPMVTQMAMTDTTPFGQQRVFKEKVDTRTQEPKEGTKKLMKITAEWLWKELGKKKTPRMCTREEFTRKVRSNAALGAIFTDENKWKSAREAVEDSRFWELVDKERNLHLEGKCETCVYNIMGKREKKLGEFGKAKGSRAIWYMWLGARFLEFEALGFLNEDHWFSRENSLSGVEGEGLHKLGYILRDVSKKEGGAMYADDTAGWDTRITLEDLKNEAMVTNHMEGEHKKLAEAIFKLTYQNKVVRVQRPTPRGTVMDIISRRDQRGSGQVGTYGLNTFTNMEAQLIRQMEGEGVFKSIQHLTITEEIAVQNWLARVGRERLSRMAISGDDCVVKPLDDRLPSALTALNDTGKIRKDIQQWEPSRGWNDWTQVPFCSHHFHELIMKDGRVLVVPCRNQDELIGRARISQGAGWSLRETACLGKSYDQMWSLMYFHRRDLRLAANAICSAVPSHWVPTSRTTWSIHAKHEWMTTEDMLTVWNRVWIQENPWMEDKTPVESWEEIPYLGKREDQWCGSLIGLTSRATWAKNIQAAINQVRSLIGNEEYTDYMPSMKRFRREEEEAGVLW
# Chain of DNA (cytosine-5)-methyltransferase 1 (P26358 whole entry): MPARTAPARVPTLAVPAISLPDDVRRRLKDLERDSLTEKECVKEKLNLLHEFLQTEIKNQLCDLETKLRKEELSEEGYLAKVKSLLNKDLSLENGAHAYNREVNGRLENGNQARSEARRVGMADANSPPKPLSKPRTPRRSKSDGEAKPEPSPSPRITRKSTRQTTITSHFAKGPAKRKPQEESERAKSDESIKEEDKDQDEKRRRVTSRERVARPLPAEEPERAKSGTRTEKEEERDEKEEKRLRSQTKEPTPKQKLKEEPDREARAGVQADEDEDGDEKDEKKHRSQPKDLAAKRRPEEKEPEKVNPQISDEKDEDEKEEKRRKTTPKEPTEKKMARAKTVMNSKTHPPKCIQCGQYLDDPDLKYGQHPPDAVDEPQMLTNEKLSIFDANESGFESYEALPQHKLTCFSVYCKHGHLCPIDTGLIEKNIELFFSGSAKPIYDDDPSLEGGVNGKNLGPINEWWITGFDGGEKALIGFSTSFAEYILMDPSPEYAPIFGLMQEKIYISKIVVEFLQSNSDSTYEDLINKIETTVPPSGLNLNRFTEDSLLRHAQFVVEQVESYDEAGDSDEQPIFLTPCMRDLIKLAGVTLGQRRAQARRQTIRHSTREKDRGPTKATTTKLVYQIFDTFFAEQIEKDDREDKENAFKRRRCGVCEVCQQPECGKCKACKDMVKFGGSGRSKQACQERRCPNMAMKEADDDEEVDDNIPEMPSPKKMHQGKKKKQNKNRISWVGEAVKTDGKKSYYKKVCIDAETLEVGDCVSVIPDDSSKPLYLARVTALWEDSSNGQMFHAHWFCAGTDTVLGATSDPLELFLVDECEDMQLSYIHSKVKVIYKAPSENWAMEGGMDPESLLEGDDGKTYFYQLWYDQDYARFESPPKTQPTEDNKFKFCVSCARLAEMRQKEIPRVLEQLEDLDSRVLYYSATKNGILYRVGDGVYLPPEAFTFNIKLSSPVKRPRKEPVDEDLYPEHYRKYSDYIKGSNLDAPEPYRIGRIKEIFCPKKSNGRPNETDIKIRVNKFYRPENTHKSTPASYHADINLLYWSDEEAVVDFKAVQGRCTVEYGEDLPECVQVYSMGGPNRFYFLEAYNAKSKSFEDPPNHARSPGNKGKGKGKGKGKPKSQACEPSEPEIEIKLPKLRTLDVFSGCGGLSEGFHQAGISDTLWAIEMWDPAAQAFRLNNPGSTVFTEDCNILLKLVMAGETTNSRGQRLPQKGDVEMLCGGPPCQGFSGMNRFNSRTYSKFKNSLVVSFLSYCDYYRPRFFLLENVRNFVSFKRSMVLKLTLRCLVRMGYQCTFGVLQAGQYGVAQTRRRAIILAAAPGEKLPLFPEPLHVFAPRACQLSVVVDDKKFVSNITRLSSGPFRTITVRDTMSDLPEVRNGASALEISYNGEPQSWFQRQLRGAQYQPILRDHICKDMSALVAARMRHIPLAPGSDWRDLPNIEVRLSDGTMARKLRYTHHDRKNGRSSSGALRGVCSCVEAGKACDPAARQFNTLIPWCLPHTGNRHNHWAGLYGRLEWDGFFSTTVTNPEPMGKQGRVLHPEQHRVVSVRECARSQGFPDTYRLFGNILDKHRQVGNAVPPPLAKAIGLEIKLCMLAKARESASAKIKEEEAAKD
compound,measurement,setting,value
O=C(C1CC(c2ccc(F)cc2)=NO1)N1CCCc2ccccc21 (configuration not stated),EC50,[1],> 100 µM (inactive)
O=C(O)CN1C(=O)/C(=C\c2cc(Br)ccc2OCc2ccc(Cl)cc2)SC1=S,IC50,[2],4.68 µM (active)
same,IC50,[3],7.13 µM (active)
same,CC50,[4],14.9 µM (active)
same,IC50,[5],24.8 µM (active)
same,EC50,[6],3.08 µM (active)
same,IC50,[7],7.36 µM (active)
same,EC50,[8],> 50 µM (not active)
same,EC50,[9],1.58 µM (active)
same,AC50,[10],1.58 µM (active)
O=C(Nc1ccc2snnc2c1)N1CCN(c2ccccc2)CC1,AC50,[11],0.0986 µM (active)
same,AC50,[10],0.913 µM (active)
COc1ccc(/C=C2\CCc3ccccc3C2=O)c(OC)c1OC,IC50,[2],31.7 µM (inactive)
same,IC50,[3],38.6 µM (inactive)
same,EC50,[12],> 53 µM (inactive)
same,IC50,[13],> 47.1 µM (inactive)
Cc1nc(-c2cccnc2)sc1C(=O)Nc1cccc(C(F)(F)F)c1,EC50,[14],15.7 µM (active)
same,AC50,[11],3.76 µM (active)
same,EC50,[15],26.8 µM (active)
Sc1nnc(-c2cc(-c3ccccc3)[nH]n2)n1/N=C/c1c2ccccc2cc2ccccc12,IC50,[16],> 50 µM (inactive)
same,IC50,[17],0.585 µM (active)
same,IC50,[18],> 88.8 µM (inactive)
same,IC50,[19],6.05 µM (not active)
same,IC50,[20],> 66.2 µM (inactive)
same,IC50,[21],23.7 µM (inactive)
same,IC50,[22],> 49.8 µM (inactive)
COc1ccc(N2C(=O)CC3(CC(c4ccccc4F)=NO3)C2=O)cc1 (configuration not stated),EC50,[1],> 100 µM (inactive)
